Experimental data reported in US20190345558A1, “METHOD FOR DETERMINING SENSITIVITY TO A CDK4/6 INHIBITOR” (UNIVERSITÉ LIBRE DE BRUXELLES, priority 2016, published 2019).

Columns and labels:
HCC38 = assay: BrdU DNA incorporation assay
Method: (§1) One hour before fixation with methanol, 100 μM 5-Bromo-2′-deoxyuridine (BrdU, Sigma-Aldrich) and 4 μM 5-Fluoro-2′-deoxyuridine (FldU, Sigma-Aldrich) were added to the cells. Immuno-detection of DNA incorporated BrdU was performed. 4′,6-Diamidino-2-phenylindole, dilactate (DAPI, Thermo Fisher Scientific) solution (1 μg/ml) was used as nuclear counterstain and round coverslips were mounted in each well of the 96 well plate with ProLong Gold Antifade Mountant (Thermo Fisher Scientific). […] Culture plates were imaged with a Zeiss Axio Observer.Z1 wide-field microscope equipped with a 10/0.3×EC Plan Neofluar objective and an AxioCam HSm camera. For each well, a grid of 3×3 fields (each of them 660 μm×492 μm) was automatically defined using the Mark&Find option of the AxioVision software. […] Exposure times were chosen so as to maximize the signal while avoiding saturation. They were kept constant through all images within one experiment. A software-based autofocus was performed on the DAPI channel, using a general offset of 8-10 μm. A 10 μm offset was added for the A488 channel. Images were analyzed semi-automatically with a custom-made ImageJ macro. […] The total number of nuclei and the area that they represent were recorded to compute the BrdU-positive to total nuclei ratios. […] Images with less than 10 labeled nuclei were counted manually with the Image J cell counter plugin.

HCC1937 = assay: BrdU DNA incorporation assay
Method: as §1

HCC1806 = assay: BrdU DNA incorporation assay
Method: One hour before fixation with methanol, 100 μM 5-Bromo-2′-deoxyuridine (BrdU, Sigma-Aldrich) and 4 μM 5-Fluoro-2′-deoxyuridine (FldU, Sigma-Aldrich) were added to the cells. Immuno-detection of DNA incorporated BrdU was performed. 4′,6-Diamidino-2-phenylindole, dilactate (DAPI, Thermo Fisher Scientific) solution (1 μg/ml) was used as nuclear counterstain and round coverslips were mounted in each well of the 96 well plate with ProLong Gold Antifade Mountant (Thermo Fisher Scientific). […] Culture plates were imaged with a Zeiss Axio Observer.Z1 wide-field microscope equipped with a 10/0.3×EC Plan Neofluar objective and an AxioCam HSm camera. For each well, a grid of 3×3 fields (each of them 660 μm×492 μm) was automatically defined using the Mark&Find option of the AxioVision software. […] Exposure times were chosen so as to maximize the signal while avoiding saturation. They were kept constant through all images within one experiment. A software-based autofocus was performed on the DAPI channel, using a general offset of 8-10 μm. A 10 μm offset was added for the A488 channel. Images were analyzed semi-automatically with a custom-made ImageJ macro. For each field of view, two masks were created, representing the areas positive for the DAPI or for both the DAPI and the BrdU stainings, respectively. Nuclei were then segmented within these masks using the “Analyze particles” function. The total number of nuclei and the area that they represent were recorded to compute the BrdU-positive to total nuclei ratios. The segmentation of the nuclei was verified visually and only values extracted from correctly segmented images were selected for further analysis. […] Each processed image was therefore systematically inspected to correct low counts and remove image with staining artefacts from the analysis. Images with less than 10 labeled nuclei were counted manually with the Image J cell counter plugin.

HCC1569 = assay: BrdU DNA incorporation assay
Method: as §1

MDAMB436 = assay: BrdU DNA incorporation assay
Method: as §1

BT549 = assay: BrdU DNA incorporation assay
Method: as §1

HCC1500 = assay: BrdU DNA incorporation assay
Method: as §1

T47D = assay: BrdU DNA incorporation assay
Method: as §1

HCC202 = assay: BrdU DNA incorporation assay; conditions: Homo sapiens, HCC202, 24 h
Method: as §1

MDAMB468 = assay: BrdU DNA incorporation assay
Method: as §1

ZR751 = assay: BrdU DNA incorporation assay
Method: as §1

SKBR3 = assay: BrdU DNA incorporation assay
Method: as §1

HCC1954 = assay: BrdU DNA incorporation assay
Method: as §1

MCF7 = assay: BrdU DNA incorporation assay
Method: as §1

HCC70 = assay: BrdU DNA incorporation assay
Method: as §1

breast cancer cell lines = assay: BrdU incorporation assay, panel of 20 cell lines
Method: as §1

MDAMB361 = assay: BrdU DNA incorporation assay
Method: as §1

pRb phosphorylations = assay: pRb phosphorylation in HCC1806 cells; type: cell-based, Human; conditions: not shown
Method: Equal amounts of whole cell extract proteins were separated according to molecular mass and immunodetected. CDK4-containing complexes were co-immunoprecipited as described (Paternot et al., 2003, J Biol Chem, 278, 26533-40; Bockstaele et al., 2006, Mol Cell Biol, 26, 5070-85). For 2D gel electrophoresis, cells were lysed in a buffer containing 7 M urea and 2 M thiourea. Frozen tumor slides were solubilised in 30 mM Tris cold buffer pH 8.5 containing 7 M urea, 2 M thiourea and 4% CHAPS with continuous vortexing until defreezing and kept under agitation during 20 min. After centrifugation at 14000 rpm for 10 min at 4° C., proteins were quantified. An equal volume of 2-D-sample buffer (7 M urea, 2 M thiourea, 2% CHAPS, 0.4% 3-10 Pharmalytes and 0.4% DTT) was added to samples normalized at 150 μg proteins. Proteins were separated by isoelectric focusing on immobilized linear pH gradient strips (pH 5 to 8, Biorad) before being separated by SDS-PAGE and immunoblotted as described (Bockstaele et al., 2006, Mol Cell Biol, 26, 5070-85).

MDAMB134VI = assay: BrdU DNA incorporation assay
Method: as §1

BT474 = assay: BrdU DNA incorporation assay
Method: as §1

BT20 = assay: BrdU DNA incorporation assay
Method: as §1

MDAMB231 = assay: BrdU DNA incorporation assay
Method: as §1

SMILES: CC(=O)c1c(C)c2cnc(Nc3ccc(N4CCNCC4)cn3)nc2n(C2CCCC2)c1=O [PD0332991, palbociclib]
- sensitivity of the cell line to PD0332991 (HCC38; HCC38, basal-like): sensitive
- IC50 (HCC38; Homo sapiens, HCC38, 24 h): 15 nM
- sensitivity of the cell line to PD0332991 (HCC1937; HCC1937, basal-like): insensitive
- IC50 (HCC1937; Homo sapiens, HCC1937, 24 h): > 1000 nM
- proportion of cells in S phase measured with the BrDU assay (HCC1806; HCC1806 cells, 1 μM PD0332991 (FIG. 1C), average of 5 independent experiments): 80 % of the control value
- IC50 (HCC1806; Homo sapiens, HCC1806, 24 h): 10 nM
- sensitivity of the cell line to palbociclib (HCC1569; HCC1569): insensitive
- IC50 (HCC1569; Homo sapiens, HCC1569, 24 h): > 1000 nM
- IC50 (MDAMB436; Homo sapiens, MDA-MB-436, 24 h): > 1000 nM
- sensitivity of the cell line to PD0332991 (MDAMB436; MDAMB436, basal-like): insensitive
- sensitivity of the cell line to PD0332991 (BT549; BT459 as printed, basal-like): insensitive
- IC50 (BT549; Homo sapiens, BT-549, 24 h): > 1000 nM
- sensitivity of the cell line to PD0332991 (HCC1500; HCC1500, basal-like): sensitive
- IC50 (HCC1500; Homo sapiens, HCC1500, 24 h): 10 nM
- IC50 (T47D; Homo sapiens, 24 h): 15 nM
- sensitivity of the cell line to PD0332991 (T47D; luminal): sensitive
- IC50 (HCC202): 25 nM
- IC50 (MDAMB468; Homo sapiens, MDA-MB-468, 24 h): > 1000 nM
- sensitivity of the cell line to PD0332991 (MDAMB468; MDAMB468, basal-like): insensitive
- IC50 (ZR751; Homo sapiens, ZR-75-1, 24 h): 15 nM
- sensitivity of the cell line to PD0332991 (ZR751; ZR75-1): sensitive
- IC50 (SKBR3; Homo sapiens, SK-BR-3, 24 h): 15 nM
- sensitivity of the cell line to PD0332991 (SKBR3; SKBR3, HER2+): sensitive
- sensitivity of the cell line to PD0332991 (HCC1954; HCC1954, HER2+): sensitive
- IC50 (HCC1954; Homo sapiens, HCC1954, 24 h): 25 nM
- IC50 (MCF7; Homo sapiens, MCF7, 24 h): 15 nM
- sensitivity of the cell line to PD0332991 (MCF7; MCF7, luminal): sensitive
- sensitivity of the cell line to PD0332991 (HCC70; HCC70, basal-like): insensitive
- IC50 (HCC70; Homo sapiens, HCC70, 24 h): > 1000 nM
- cell lines in which the proportion of DNA replicating cells was reduced in a concentration-dependent way (breast cancer cell lines; BrdU incorporation): 13 out of these 20 cell lines
- IC50 (breast cancer cell lines; Homo sapiens, read-out: IC50s with the BrdU incorporation assay): 5 to 50 nM
- IC50 (MDAMB361; Homo sapiens, MDA-MB-361, 24 h): 10 nM
- sensitivity of the cell line to PD0332991 (MDAMB361; MDAMB361, HER2+): sensitive
- inhibition of pRb phosphorylations in response to PD0332991 (pRb phosphorylations): marked inhibition
- IC50 (MDAMB134VI; Homo sapiens, MDA-MB-134-VI, 24 h): 3 nM
- sensitivity of the cell line to PD0332991 (MDAMB134VI; MDAMB134IV as printed, luminal): sensitive
- sensitivity of the cell line to PD0332991 (BT474; BT474, HER2+): sensitive
- IC50 (BT474; Homo sapiens, BT-474, 24 h): 15 nM
- sensitivity of the cell line to PD0332991 (BT20; BT20, basal-like): sensitive
- IC50 (BT20; Homo sapiens, BT-20, 24 h): 3 nM
- IC50 (MDAMB231; Homo sapiens, MDA-MB-231, 24 h): 15 nM
- sensitivity of the cell line to PD0332991 (MDAMB231; MDAMB231, basal-like): sensitive

SMILES: CC[C@H](CO)Nc1nc(NCc2ccccc2)c2ncn(C(C)C)c2n1 [Roscovitine]
- effect of Roscovitine on the sensitivity of HCC1806 cells to PD0332991 (HCC1806; 2.5, 5, 10 μM Roscovitine with increasing concentrations of PD0332991, BrdU (FIG. 5)): dose-dependently increased the sensitivity
